Test system: human PBMC cytotoxicity, % cell control
Assay: viability of primary blood mononuclear cells – cell-based, primary PBMCs, TC50, cytotoxicity control for HIV-1 antiviral lead project, dose response (AID 504530)

`Cc1c2c(=O)n(-c3nc4ccccc4s3)nc-2cc(O)n1Cc1cccnc1` showed a CC50 of 2.15 µM.

In the case of `Cc1c2c(=O)n(-c3nc4ccccc4s3)nc-2cc(O)n1Cc1ccc(F)cc1`, the CC50 is reported as 18.7 µM.

Work on `Cc1c2c(=O)n(-c3nc4ccccc4s3)nc-2cc(O)n1CCc1ccc(O)cc1` yielded a CC50 of 2.11 µM.

`Cc1c2c(=O)n(-c3nc4ccccc4s3)nc-2cc(O)n1C1CC1` gave a CC50 of 2.6 µM.

`Cc1c2c(=O)n(-c3nc4ccccc4s3)nc-2cc(O)n1CCC(C)C` was tested, and the CC50 was 41.1 µM.

Molecule `Cc1c2c(=O)n(-c3nc4ccccc4s3)nc-2cc(O)n1Cc1cccs1` has a CC50 of 25.7 µM.

Molecule `COc1ccc(CCn2c(O)cc3nn(-c4nc5ccccc5s4)c(=O)c-3c2C)cc1` has a CC50 of 60 µM.

Work on `COc1ccc(Cn2c(O)cc3nn(-c4nc5ccccc5s4)c(=O)c-3c2C)cc1` yielded a CC50 of 19.2 µM.

`Cc1c2c(=O)n(-c3nc4ccccc4s3)nc-2cc(O)n1CCc1cccs1` was tested, and the CC50 was 71.2 µM.

With `Cc1c2c(=O)n(-c3nc4ccccc4s3)nc-2cc(O)n1Cc1ccncc1` the CC50 was 2.4 µM.

For `COc1ccccc1Cn1c(O)cc2nn(-c3nc4ccccc4s3)c(=O)c-2c1C`, the CC50 was 22 µM.

For `Cc1c2c(=O)n(-c3nc4ccccc4s3)nc-2cc(O)n1Cc1ccccc1Cl`, the CC50 was 38.9 µM.
